Measurements reported in patent publication US9593110B2, “Neprilysin inhibitors” (Theravence Biopharma R&D IP, LLC, priority 2014, dated 2017).

Biological target: human NEP (Homo sapiens (Human), UniProt P08473)
Assay: In vitro enzyme inhibition assay at human NEP
Conditions: pKi, recombinant human NEP, fluorogenic peptide substrate, 37° C.

Sequence of human NEP (P08473 52-750): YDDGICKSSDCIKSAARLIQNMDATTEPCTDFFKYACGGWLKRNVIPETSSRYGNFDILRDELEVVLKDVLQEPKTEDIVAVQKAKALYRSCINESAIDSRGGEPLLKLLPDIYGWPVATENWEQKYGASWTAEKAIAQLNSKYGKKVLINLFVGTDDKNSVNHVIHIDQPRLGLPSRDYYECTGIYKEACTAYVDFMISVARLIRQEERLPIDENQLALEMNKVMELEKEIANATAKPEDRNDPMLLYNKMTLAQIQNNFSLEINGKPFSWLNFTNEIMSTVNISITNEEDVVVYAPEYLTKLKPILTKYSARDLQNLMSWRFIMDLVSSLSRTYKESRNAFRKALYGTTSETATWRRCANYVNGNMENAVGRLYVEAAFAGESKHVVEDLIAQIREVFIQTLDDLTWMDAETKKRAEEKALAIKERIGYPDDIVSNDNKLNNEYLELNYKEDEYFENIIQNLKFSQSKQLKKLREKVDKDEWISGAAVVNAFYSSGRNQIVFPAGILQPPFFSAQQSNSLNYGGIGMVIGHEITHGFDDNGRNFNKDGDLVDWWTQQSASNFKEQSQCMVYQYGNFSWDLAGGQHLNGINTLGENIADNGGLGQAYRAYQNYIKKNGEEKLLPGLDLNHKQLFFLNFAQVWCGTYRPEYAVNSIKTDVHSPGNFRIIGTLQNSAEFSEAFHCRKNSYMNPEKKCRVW

SMILES | Ki
O=C(N[C@H](Cc1ccc(-c2cc(Cl)ccc2F)cc1)C[C@@H](CN1CC(CCO)C1)C(=O)O)c1c[nH]nn1 [Example 105, (2S,4S)-5-(5′-Chloro-2′-fluorobiphenyl-4-yl)-2-[3-(2-hydroxyethyl)azetidin-1-ylmethyl]-4-[(1H-[1,2,3]triazole-4-carbonyl)amino]pentanoic Acid] | ≤ 1 nM
CC(C)c1coc(C(=O)N[C@H](Cc2ccc(-c3cc(Cl)ccc3F)cc2Cl)C[C@@H](N)C(=O)O)n1 [Example 17, (2R,4R)-2-Amino-5-(3,5′-dichloro-2′-fluorobiphenyl-4-yl)-4-[(4-isopropyloxazole-2-carbonyl)amino]pentanoic Acid] | ≤ 1 nM
NCC(=O)N[C@H](C[C@@H](Cc1ccc(-c2ccccc2F)cc1)NC(=O)c1c[nH]nn1)C(=O)O [Example 32, (2R,4R)-2-(2-Aminoacetylamino)-5-(2′-fluorobiphenyl-4-yl)-4-[(1H-[1,2,3]triazole-4-carbonyl)amino]pentanoic Acid] | 3.16 to 10 nM
Cc1cc(C(=O)N[C@H](Cc2ccc(-c3cc(Cl)ccc3F)cc2)C[C@@H](CN)C(=O)O)sn1 [Example 21-6, (2S,4S)-2-Aminomethyl-5-(5′-chloro-2′-fluorobiphenyl-4-yl)-4-[(3-methylisothiazole-5-carbonyl)amino]pentanoic acid] | 1.26 to 3.16 nM
COc1cnc(C(=O)N[C@H](Cc2ccc(-c3cc(Cl)ccc3F)cc2Cl)C[C@H](N)C(=O)O)o1 [Example 18-12, (2S,4R)-2-Amino-5-(3,5′-dichloro-2′-fluoro-biphenyl-4-yl)-4-[(5-methoxyoxazole-2-carbonyl)amino]pentanoic acid] | 3.16 to 10 nM
COCCN(C)C[C@H](C[C@@H](Cc1ccc(-c2cc(Cl)ccc2F)cc1)NC(=O)c1cnn[nH]1)C(=O)O [Example 85a, (2S,4S)-5-(5′-Chloro-2′-fluorobiphenyl-4-yl)-2-{[(2-methoxyethyl)methylamino]methyl}-4-[(3H-[1,2,3]triazole-4-carbonyl)amino]pentanoic Acid] | ≤ 1 nM
N[C@H](C[C@@H](Cc1ccc(-c2cc(Cl)ccc2F)cc1Cl)NC(=O)c1cc(C2CC2)on1)C(=O)O [Example 18-9, (2R,4R)-2-Amino-4-[(5-cyclopropyl-isoxazole-3-carbonyl)-amino]-5-(3,5′-dichloro-2′-fluorobiphenyl-4-yl)pentanoic acid] | 3.16 to 10 nM
O=C(N[C@H](Cc1ccc(-c2cc(Cl)ccc2F)cc1)C[C@@H](CN1CC(F)(F)C1)C(=O)O)c1cnn[nH]1 [Example 90b, (2S,4S)-5-(5′-Chloro-2′-fluorobiphenyl-4-yl)-2-(3,3-difluoroazetidin-1-ylmethyl)-4-[(3H-[1,2,3]triazole-4-carbonyl)amino]pentanoic Acid] | ≤ 1 nM
N[C@H](C[C@@H](Cc1ccc(-c2cc(Cl)ccc2F)cc1)NC(=O)c1ccns1)C(=O)O [Example 16-8, (2R,4R)-2-Amino-5-(5′-chloro-2′-fluorobiphenyl-4-yl)-4-[(isothiazole-5-carbonyl)amino]-pentanoic acid] | 3.16 to 10 nM
O=C(N[C@H](Cc1ccc(-c2cc(Cl)ccc2F)cc1)C[C@@H](CN1CC[C@H]1CO)C(=O)O)c1cnn[nH]1 [Example 95b, (2S,4S)-5-(5′-Chloro-2′-fluorobiphenyl-4-yl)-2-((S)-2-hydroxymethyl-azetidin-1-ylmethyl)-4-[(3H-[1,2,3]triazole-4-carbonyl)amino]pentanoic Acid] | ≤ 1 nM
CCOc1oc(C(=O)N[C@H](Cc2ccc(-c3cc(Cl)ccc3F)cc2)C[C@@H](NC(=O)OC)C(=O)O)nc1C [Example 30-8, (2R,4R)-5-(5′-Chloro-2′-fluorobiphenyl-4-yl)-4-[(5-ethoxy-4-methyl-oxazole-2-carbonyl)amino]-2-methoxycarbonylaminopentanoic acid] | 1.26 to 3.16 nM
O=C(N[C@H](Cc1ccc(-c2cc(Cl)ccc2F)cc1)C[C@@H](CNCCCO)C(=O)O)c1cnn[nH]1 [Example 87b, (2S,4S)-5-(5′-Chloro-2′-fluorobiphenyl-4-yl)-2-[(3-hydroxypropylamino)methyl]-4-[(3H-[1,2,3]triazole-4-carbonyl)amino]pentanoic Acid] | ≤ 1 nM

Same assay, conditions: recombinant human NEP, fluorogenic peptide substrate, 37° C.

SMILES | pKi
COC(=O)N[C@H](C[C@@H](Cc1ccc(-c2cc(Cl)ccc2F)cc1)NC(=O)c1coc(C2CC2)n1)C(=O)O [Example 30-5, (2R,4R)-5-(5′-Chloro-2′-fluorobiphenyl-4-yl)-4-[(2-cyclopropyl-oxazole-4-carbonyl)amino]-2-methoxycarbonylaminopentanoic acid] | ≧9.0
COC[C@H](C[C@@H](Cc1ccc(-c2cc(Cl)ccc2F)cc1)NC(=O)c1ncco1)C(=O)O [Example 2-7, (2S,4S)-5-(5′-Chloro-2′-fluorobiphenyl-4-yl)-2-methoxymethyl-4-[(oxazole-2-carbonyl)amino]pentanoic acid] | ≧9.0
N[C@H](C[C@@H](Cc1ccc(-c2cc(Cl)ccc2F)cc1)NC(=O)c1ncccn1)C(=O)O [Example 16-29, (2R,4R)-2-Amino-5-(5′-chloro-2′-fluorobiphenyl-4-yl)-4-[(pyrimidine-2-carbonyl)-amino]pentanoic acid] | ≧9.0
CCOC[C@H](C[C@@H](Cc1ccc(-c2cc(Cl)ccc2F)cc1)NC(=O)c1n[nH]c(C(F)(F)F)n1)C(=O)O [Example 6, (2S,4S)-5-(5′-Chloro-2′-fluorobiphenyl-4-yl)-2-ethoxymethyl-4-[(5-trifluoromethyl-1H-[1,2,4]triazole-3-carbonyl)amino]pentanoic Acid] | ≧9.0
CCOC[C@H](C[C@@H](Cc1ccc(-c2cc(Cl)ccc2F)cc1)NC(=O)c1c[nH]c(=O)o1)C(=O)O [Example 7-9, (2S,4S)-5-(5′-Chloro-2′-fluorobiphenyl-4-yl)-2-ethoxymethyl-4-[(2-oxo-2,3-dihydro-oxazole-5-carbonyl)amino]pentanoic acid] | ≧9.0
CCCc1nc(C(=O)N[C@H](Cc2ccc(-c3cc(Cl)ccc3F)cc2Cl)C[C@@H](N)C(=O)O)co1 [Example 18-2, (2R,4R)-2-Amino-5-(3,5′-dichloro-2′-fluorobiphenyl-4-yl)-4-[(2-propyloxazole-4-carbonyl)amino]pentanoic acid] | ≧9.0
O=C(N[C@H](Cc1ccc(-c2cc(Cl)ccc2F)cc1)C[C@@H](Cn1ccnc1)C(=O)O)c1cnn[nH]1 [Example 62, (2S,4S)-5-(5′-Chloro-2′-fluorobiphenyl-4-yl)-2-imidazol-1-ylmethyl-4-[(3H-[1,2,3]triazole-4-carbonyl)amino]pentanoic Acid] | ≧9.0
COC(=O)N[C@H](C[C@@H](Cc1ccc(-c2cc(Cl)ccc2F)cc1)NC(=O)c1c[nH]nn1)C(=O)O [Example 30-1, (2R,4R)-5-(5′-Chloro-2′-fluoro-biphenyl-4-yl)-2-methoxycarbonylamino-4-[(1H-[1,2,3]triazole-4-carbonyl)amino]pentanoic acid] | ≧9.0
N[C@H](C[C@@H](Cc1ccc(-c2cc(Cl)ccc2F)cc1)NC(=O)c1cc(O)no1)C(=O)O [Example 16-28, (2R,4R)-2-Amino-5-(5′-chloro-2′-fluorobiphenyl-4-yl)-4-[(3-hydroxyisoxazole-5-carbonyl)amino]pentanoic acid] | ≧9.0
CCc1cc(C(=O)N[C@H](Cc2ccc(-c3cc(Cl)ccc3F)cc2Cl)C[C@H](N)C(=O)O)on1 [Example 18-6, (2S,4R)-2-Amino-5-(3,5′-dichloro-2′-fluorobiphenyl-4-yl)-4-[(3-ethylisoxazole-5-carbonyl)amino]pentanoic acid] | ≧9.0
CCOC[C@H](C[C@@H](Cc1ccc(-c2cc(Cl)ccc2F)cc1)NC(=O)c1cc(CC)no1)C(=O)O [Example 7-5, (2S,4S)-5-(5′-Chloro-2′-fluorobiphenyl-4-yl)-2-ethoxymethyl-4-[(3-ethylisoxazole-5-carbonyl)amino]pentanoic acid] | ≧9.0
COC(=O)N[C@H](C[C@@H](Cc1ccc(-c2cc(Cl)ccc2F)cc1)NC(=O)c1cc(C(C)=O)n[nH]1)C(=O)O [Example 30-2, (2R,4R)-4-[(5-Acetyl-2H-pyrazole-3-carbonyl)-amino]-5-(5′-chloro-2′-fluoro-biphenyl-4-yl)-2-methoxycarbonylaminopentanoic acid] | ≧9.0
NCCCCC(=O)N[C@H](C[C@@H](Cc1ccc(-c2cc(Cl)ccc2F)cc1)NC(=O)c1c[nH]nn1)C(=O)O [Example 72, (2R,4R)-2-(5-Amino-pentanoylamino)-5-(5′-chloro-2′-fluorobiphenyl-4-yl)-4-[(1H-[1,2,3]triazole-4-carbonyl)amino]pentanoic Acid] | ≧9.0
N[C@H](C[C@@H](Cc1ccc(-c2cc(Cl)ccc2F)cc1)NC(=O)c1nc2cc(Cl)ccn2n1)C(=O)O [Example 16-25, (2R,4R)-2-Amino-5-(5′-chloro-2′-fluorobiphenyl-4-yl)-4-[(7-chloro-[1,2,4]triazolo[1,5-a]pyridine-2-carbonyl)amino]pentanoic acid] | ≧9.0
CN(C)CCCC(=O)N[C@H](C[C@@H](Cc1ccc(-c2cc(Cl)ccc2F)cc1)NC(=O)c1c[nH]nn1)C(=O)O [Example 73, (2R,4R)-5-(5′-Chloro-2′-fluorobiphenyl-4-yl)-2-(4-dimethylaminobutyrylamino)-4-[(1H-[1,2,3]triazole-4-carbonyl)amino]pentanoic Acid] | ≧9.0
COC[C@H](C[C@@H](Cc1ccc(-c2cccc(Br)c2)cc1)NC(=O)c1cnn[nH]1)C(=O)O [Example 80, (2S,4S)-5-(3′-Bromobiphenyl-4-yl)-2-methoxymethyl-4-[(3H-[1,2,3]triazole-4-carbonyl)amino]pentanoic Acid] | ≧9.0
COCc1cc(C(=O)N[C@H](Cc2ccc(-c3cc(Cl)ccc3F)cc2Cl)C[C@H](N)C(=O)O)no1 [Example 18-8, (2S,4R)-2-Amino-5-(3,5′-dichloro-2′-fluorobiphenyl-4-yl)-4-[(5-methoxymethylisoxazole-3-carbonyl)amino]pentanoic acid] | ≧9.0
COC(=O)N[C@H](C[C@@H](Cc1ccc(-c2cc(Cl)ccc2F)cc1)NC(=O)c1noc(=O)[nH]1)C(=O)O [Example 30-9, (2R,4R)-5-(5′-Chloro-2′-fluorobiphenyl-4-yl)-2-methoxycarbonylamino-4-[(5-oxo-4,5-dihydro-[1,2,4]oxadiazole-3-carbonyl)amino]pentanoic acid] | ≧9.0
